From PMC4701221, “Novel Promising Estrogenic Receptor Modulators: Cytotoxic and Estrogenic Activity of Benzanilides and Dithiobenzanilides” (PLoS ONE, 2016)
pIC50: −log10 of the molar value. “Also recorded” adds a separate entry of the source.

Tests used:
MDA-MB-231 cells = experiment: Sulphorodamine B assay, MDA-MB-231; assay type: cell-based, human; details: 72 h, Fig 2
Experimental: (§1) In addition to the MTT assay, cell viability was measured by the Sulphorodamine B assay according to Vichai and Kirtikara. The MCF-7 and MDA-MB-23 cells were seeded and treated as for the MTT assay. After incubation the medium was removed and the cells were fixed with cold (4°C) trichloroacetic acid (final concentration 10%) for 1h. Than plates were washed 4 times with water and stained for 30 min, following by staining with sulforhodamine B (SRB) 0.4% in 1% acetic acid solution at room temperature for 20 min. After staining, the SRB solution was removed and the plates washed 5 times with 1% acetic acid dried. Bound SRB was solubilized with 200 μl 10 mM unbuffered Tris-base solution and plates were shaked for 10 min. The absorbance at 510 nm was measured using a plate reader (Biotek Instruments, Elx-800).

MCF-7 cells [1] = experiment: MTT assay, MCF-7; assay type: cell-based, human
Experimental: (§2) The cell lines used in the cytotoxicity study, besides MCF-12A, were purchased from European Collection of Cell Culture (ECACC, Salisbury, UK): HEK293 (human embryonic kidney, ATTC no. CRL-1573), A549 (Human lung carcinoma, ECACC no. 86012804), CCD39Lu (Human lung fibroblasts, ECACC no. 90110512), MCF-7 (Human breast adenocarcinoma, ECACC no. 86012803) and MDA-MB-231 (Human breast adenocarcinoma ECACC no. 92020424). Cell lines were cultured in DMEM medium without phenol red and supplemented with 10% (v/v) FBS, 1% penicillin-streptomycin and 1% L-glutamine. MCF-12A (ATTC no. […]) was purchased from American Type Culture Collection (ATCC Manassas, VA 20110 USA). MCF-12A cells were kept in 1:1 mixture of Dulbecco’s modified Eagle’s medium and Ham’s F12 medium, 20 ng/ml human epidermal growth factor, 100 ng/ml cholera toxin, 0.01 mg/ml bovine insulin, 500 ng/ml hydrocortisone and 5% horse serum. All cell lines were cultured at 37°C, in a humidified atmosphere containing 5% CO2.
(§3) Compounds were dissolved in DMSO to the final concentration of […]. A549, CCD39Lu, MCF-7, MDA-MB-231 and MCF-12A cells were seeded in 96 wells plates at density 2x10^4 cells/well and incubated overnight as described above. Subsequently, cells were treated with tested compounds at concentrations: 100 μM; 50 μM; 25μM; 12.5μM; 6 μM; 3 μM; 1.5 μM. […] Cells were incubated 72 h at 37°C in a humidified atmosphere containing 5% CO2 in the cell culture media appropriate for each cell line. Then, the medium was aspirated and 170 μl MTT solution (5mg/ml) was added to each well. Plates were incubated for 2 hours at 37°C, and then plates were centrifuged at 1200 rpm for 3 minutes. The formazan crystals were dissolved in 200 μl DMSO and plates were further agitated on a plate shaker at 300–500 rpm for 10 minutes. Absorbance at 570 nm (with reference wavelenght 650 nm) was measured using a plate reader (Biotek Instruments, Elx-800). Cell viability was calculated as a percentage relative to the control.

HEK293 cells = experiment: MTT cell viability, non-transfected (mock) HEK293 cells; assay type: cell-based, human; details: 0–100 μM, 72 h, Fig 6B
Experimental: as §3, with “The formazan crystals were dissolved in 200 μl DMSO and plates were further agitated on a plate shaker at 300–500 rpm for 10 minutes.” left out
Fig 6 Estrogenic and cytotoxic activity of tested compounds in HEK293 cells transfected with wild type ERα receptor or plasmids bearing mutated versions of ERα. […] Results are expressed as mean ± SEM (n = 8). * p < 0.05 was considered statistically significant. […] 48 h after transfection, cells were incubated in the presence of increasing concentrations of compounds 18 for 72 h and cell viability was measured by MTT assay. […]

A549 cells = experiment: MTT assay, A549; assay type: cell-based; details: Homo sapiens, 72 h, lung adenocarcinoma, read-out: Cytotoxic activity IC50, A549
Experimental: as §2, §3

MCF-7 cells [2] = experiment: Sulphorodamine B assay, MCF-7; assay type: cell-based, human; details: 72 h, Fig 2
Experimental: as §1

MTT assay, MCF-12A = assay type: cell-based; details: human, MCF-12A cells (non-tumorigenic breast epithelial), read-out: Cytotoxic activity IC50, MCF-12A
Experimental: as §2, §3

SMILES: Fc1ccc(NC(=S)c2ccc(NC(=S)c3ccc(F)cc3)cc2)cc1 [Compound 18]
- Effect in SRB assay, MDA-MB-231 (MDA-MB-231 cells): non-significant effects
- Activity in MTT assay (in words), MCF-7 (MCF-7 cells [1]; 72 h): significant activity; also recorded: strong effect
- pIC50 (MCF-7 cells [1]; Homo sapiens, MCF7, 72 h, estrogen dependent breast adenocarcinoma, read-out: Cytotoxic activity IC50, MCF-7): 5.29
- Cell viability, non-transfected HEK293 (HEK293 cells): moderate cell toxicity
- pIC50 (A549 cells): < 4.00
- Effect in SRB assay, MCF-7 (MCF-7 cells [2]): strong effect
- IC50 at 72 h (MTT assay, MCF-12A): 91.5 µM
